Data from patent US20090162351A1, “Transdiscal administration of inhibitors of p38 MAP kinase” (DePuy Spine, Inc., priority 2007, published 2009).

Experiments:
Type in all cases: cell-based
[1] = system: bovine chondrocyte pellets / ARC tissues stimulated with IL-1β; assay: Chondrocyte pellet / ARC culture model: GAG degradation assay; conditions: Table 3B
Text: A chondrocyte pellet culture model was developed for in vitro high throughput screening of therapeutic compounds for inhibition of IL-1β-stimulated matrix degradation. The chondrocyte pellet culture model can be used to detect various potential therapeutic compounds effective in blocking different processes caused by IL-1β stimulation. For example, IL-1β stimulation results in increased glycosaminoglycan (GAG) degradation, prostaglandin E2 (PGE2) synthesis and total nitrite/nitrate production. Compounds with different mechanisms of action may inhibit the increase of one or two or all three of these parameters. For this reason, screening by, for example, measuring only GAG release would be limited to detection of a specific class of inhibitors and may not detect compounds with diversified mechanisms of function which may be involved in inhibition of the IL-1 stimulated inflammatory process. The development of the chondrocyte pellet culture assay system in a 96-well plate made possible large-scale screening of potential therapeutic compounds with different mechanisms of action.
(§1) Calf articular cartilage was obtained from the knee joints of eight to twelve month old animals and was processed within twenty-four hours after sacrifice. After removal of muscle and ligament, the cartilage was kept moist using phosphate buffer solution (PBS) to prevent tissue dehydration, and was aseptically peeled off from subchondral bone with a scalpel, and the cartilage pieces were further minced into smaller pieces (˜0.3-0.5×˜0.2-0.5 cm cubes). […] Chondrocytes were then enzymatically isolated from the tissue by incubation for overnight at 37° C. with gentle agitation in 0.2% collagenase in Dulbecco's modified eagle media (DMEM). After removal of tissue debris by filtration through cell strainer and the residual collagenase by 3× wash in PBS, cells were finally resuspended at a density of 2.5×10^6 cells/ml in chondrocyte medium. A 1 ml aliquot of the cell suspension was dispensed into either a 15 ml Falcon centrifuge tube or a 96 deep-well plate and centrifuged at 2000×g for five minutes. The chondrocyte pellets were incubated at 37° C. in a humidified atmosphere of 5% CO2 for two to three weeks with a medium change every other day.
(§2) As an alternative to using calf articular cartilage, a commercial Aliginate Recovered Chondrocytes (ARC) system was also used (Articular Engineering, LLC (Northbrook, Ill.)). Use of the commercial system cut down on labor and time in producing chondrocyte pellet. This system produced cartilaginous tissue in vitro using bovine chondrocytes. The first step consisted of culturing chondrocytes in alginate under conditions optimal for the formation of a cell-associated matrix (CM). The second step allowed these cells with their CM, after recovery, to rapidly form and become integrated into a solid mass of cartilage on a porous insert within two weeks.
This tissue is rich in cells surrounded by a cell-associated matrix that is degraded rapidly when the cells are exposed to IL-1. ARC tissues in 3 mm punches at delivery were first dispensed into a 96 deep-well plate, one punch per well, for compound treatment. The subsequent procedures were the same as those used for the chondrocyte pellets.
(§3) Chondrocyte pellets were washed once with 1 ml of Chondrocyte Stimulation Medium and equilibrated in the same medium at room temperature for fifteen to thirty minutes. Compounds were dissolved in H2O, Ethanol or dimethyl sulfoxide (DMSO) (10^−2 M) according to suppliers' instructions and further diluted with Chondrocyte Stimulation Medium to the required concentrations. DMSO concentrations in the culture media should not exceed 1%; this concentration of DMSO has no effect on cartilage proteoglycan metabolism in response to cytokines.
The pellets were first treated with compounds at desired concentrations at 37° C. for one hour and then incubated for three to five days in the absence or presence of 10 ng/ml of IL-1β. […]

[2] = system: IL-1β-stimulated PGE2 synthesis in bovine chondrocyte pellets / ARC tissues; assay: Chondrocyte pellet / ARC culture model: Prostaglandin E2 assay; conditions: Table 3B
Text: as §1, §2, §3
(§4) The pellets were first treated with compounds at desired concentrations at 37° C. for one hour and then incubated for three to five days in the absence or presence of 10 ng/ml of IL-1β. At the end of the incubation, media and pellets were harvested and frozen for further analysis. Pellets were also fixed as needed in 4% (w/v) paraformaldehyde in PBS for histology analysis.
Prostaglandin E2 (PGE2) was measured with a STAT-Prostaglandin E2 EIA ELISA kit (Cayman Biochemicals). This assay is based on the competition between PGE2 from 50 μl samples and a PGE2-alkaline phosphatase conjugate for a limited amount of PGE2 monoclonal antibody in a reaction volume of 150 μl at room temperature for one hour. The antibody-PGE2 complex bound to a goat polyclonal anti-mouse IgG that had been previously attached to the well. After washing to remove any unbound reagents, para-nitrophenyl phosphate (pNPP) was added to the well. The product of this enzymatic reaction absorbs strongly at 412 nm. Because of the large range in response to IL-1β and other cytokines, PGE2 values were converted to log scale prior to doing t-tests.
To characterize the relative efficacies among different p38 MAP kinase inhibitors, dose-response curves were generated for both PGE2 and NO assays. […] After one hour of treatment, ARCs were stimulated with or without 7.5 ng/ml IL-1β and continued to incubate for five days before assay. The IL-1β-stimulated PGE2 synthesis or NO production was first calculated by subtraction of PGE2/NO levels in the absence of IL-1β from that in the presence of IL-1β. […]

[3] = system: IL-1β-stimulated NO production in bovine chondrocyte pellets / ARC tissues; assay: Chondrocyte pellet / ARC culture model: total nitrite and nitrate assay; conditions: Table 3B
Text: as §1, §2, §3, §4
Nitrate/Nitrite levels were measured using the Griess reaction (Green L. C. et al., “Analysis of Nitrate, Nitrite, and [15N]nitrate in Biological Fluids,” Anal. Biochem. 126: 131-138 (1982)) with a Nitrate/Nitrite Colorimetric Assay Kit (Cayman Chemicals), the contents of which are incorporated herein by reference. The assay involved a simple two-step process. The first step involved conversion of nitrate in 50 μl of culture medium to nitrite utilizing nitrate reductase in a reaction volume of 100 μl at room temperature for two hours. The second step involved the addition of 50 μl of both Griess Reagent 1 and 2, which converted nitrite into a deep purple azo compound in ten minutes. Photometric measurement of the absorbance at 540 or 550 nm due to this azo chromophore accurately determined nitrite concentration. This assay kit cannot be used for RPMI (Roswell Park Memorial Institute) derived tissue culture medium due to interference with the colorimetric reaction.
To characterize the relative efficacies among different p38 MAP kinase inhibitors, dose-response curves were generated for both PGE2 and NO assays. […] After one hour of treatment, ARCs were stimulated with or without 7.5 ng/ml IL-1β and continued to incubate for five days before assay. […]

[4] = system: injured bovine articular cartilage explants in inflammatory medium; assay: Drop tower model: GAG degradation in injured cartilage explants; conditions: for inhibition at 10 µM: Bos taurus, injured cartilage explants
Text: In order to assess cartilage breakdown by inflammatory mediators and the effect of antagonists on those mediators, a cartilage impact model (the “drop tower model”) was established using a drop tower device to apply a peak compressive stress to a cartilage sample of about 20-30 MPa over an area of about 11-15 mm^2. Advantages of this model included its clinical relevance due to its potential to mimic several key parameters of osteoarthritis such as inflammatory cell mediators (by co-culturing with inflammatory cells), and induction of trauma to create the cartilage damage.
In the “drop tower design model” cartilage explants were first injured and then cultured in inflammatory medium to mimic the progression of joint impact trauma linked to cartilage degeneration and osteoarthritis. The approach of the model is to artificially produce cellular damage without gross structural alterations, and to determine how the cells respond to such an insult over the ensuing days when treated with or without potential therapeutic agents.
The device comprises a vertical rail that guides a sliding weight from 0.1 kg to 3 kg directly onto a force transducer which is situated at the bottom of the device. A sphere-shaped 2 mm indenter resting on a specimen is located at the bottom of the vertical rail. The indenter is held by a stop screw. The specimen is rigidly attached to a tissue holder underneath the indenter, to avoid side movements, the specimen is rigidly attached to the tissue holder. In this manner, the force transducer transduces a force indirectly onto the specimen. Adjusting the weight of a mass and height from which the mass drops varies the magnitude of the intended impact. For example, a weight mass (e.g., […]) held by a weight holder can be released from a height of e.g., 36 cm and dropped onto the force transducer.
Samples for compound evaluation were tested using either of two different methods to induce inflammatory conditions. One method utilized media conditioned from peripheral blood mononuclear cells (PBMCs) stimulated with LPS (“+LPS”) or non-inflammatory media without LPS (“−LPS”). Another method utilized the absence or presence of a cocktail of cytokines.
In the first method, bovine or human PBMCs were freshly prepared using Ficoll gradient by Lampire Biological Laboratories, Inc. PBMCs in RPMI w/10% FCS at delivery were spun down at 1500 rpm for twenty minutes and the cell pellet was washed twice with 1×PBS to wash off the residual Ficoll. The cells were then resuspended at a density of 1×10^6/ml in RPMI supplemented with 10% FCS, 1× Antibiotics-Antimycotics. The suspension was divided into two aliquots. One aliquot was stimulated with 10 μg/ml of LPS and the other was not stimulated. Both aliquots were then incubated at 37° C., 5% CO2 for twenty-four to seventy-two hours. The conditioned media with or without LPS stimulation are collected, aliquoted, and stored in −80° C. for a maximum of three months. Each conditioned medium was assessed for levels of pro-inflammatory cytokines to ensure their secretion from PBMC. A representative cytokine, IL-6, was assayed by ELISA using a Human IL-6 Quantikine kit and it was shown that the LPS-stimulated medium had at least 10 ng/ml of IL-6, while IL-6 was undetectable in the unstimulated medium.
In the second method, the explants were cultured at 37° C., 5% CO2 either in stimulated or non-stimulated conditioned medium as described above or in defined medium containing DMEM supplemented with 1% FCS, 1× insulin-transferrin-sodium selenite media supplement and Antibiotics-Antimycotics in the presence or absence of a cocktail of cytokines containing 10 ng/ml of IL-1β, 100 ng/ml of TNFα and 5 ng/ml of IFN-γ. The compounds were solubilized in H2O, Ethanol or DMSO (10^−2 M) according to suppliers' instructions and further diluted with either conditioned medium stimulated with or without LPS to the required concentrations. DMSO concentrations in the culture media never exceeded 1%. […]

[5] = system: PGE2 synthesis in injured bovine cartilage explants; assay: Drop tower model: PGE2 synthesis in injured cartilage explants
Procedure: (§5) In the second method, the explants were cultured at 37° C., 5% CO2 either in stimulated or non-stimulated conditioned medium as described above or in defined medium containing DMEM supplemented with 1% FCS, 1× insulin-transferrin-sodium selenite media supplement and Antibiotics-Antimycotics in the presence or absence of a cocktail of cytokines containing 10 ng/ml of IL-1β, 100 ng/ml of TNFα and 5 ng/ml of IFN-γ. The compounds were solubilized in H2O, Ethanol or DMSO (10^−2 M) according to suppliers' instructions and further diluted with either conditioned medium stimulated with or without LPS to the required concentrations. DMSO concentrations in the culture media never exceeded 1%. This concentration of DMSO has no effect on cartilage proteoglycan metabolism in response to cytokines. The injured and noninjured cartilage explants were treated with compound-containing medium for three to five days. The specimens were first treated with compounds at desired concentrations at 37° C. for one hour and then incubated for three to five days in the absence or presence of the cocktail of cytokines. At the end of the incubation, media and cartilage samples were harvested and frozen for further analysis.
PGE2 was measured with STAT-Prostaglandin E2 EIA ELISA kit (Cayman Biochemicals), as described in Example III above. The antibody-PGE2 complex binds to a goat polyclonal anti-mouse IgG that has been previously attached to the well. After washing to remove any unbound reagents, para-nitrophenyl phosphate (pNPP) was added to the well. The product of this enzymatic reaction absorbs strongly at 412 nm. Because of the large range in response to IL-1β and other cytokines, PGE2 values were converted to log scale prior to doing t-tests.

[6] = system: NO production in injured bovine cartilage explants; assay: Drop tower model: NO production in injured cartilage explants; conditions: Bos taurus; at 10 μM; injured cartilage explants
Procedure: as §5
Nitrate/Nitrite was measured using the Griess reaction (Green L. C. et al., “Analysis of Nitrate, Nitrite, and [15N]nitrate in Biological Fluids,” Anal. Biochem. 126: 131-138 (1982)) with a Nitrate/Nitrite Colorimetric Assay Kit (Cayman Chemicals), as described in Example III above.

Structure (SMILES) | GAG Release, Pellet Assay (in words) [1] | PGE2 Inhibition, Pellet Assay (in words) [2] | NO Inhibition, Pellet Assay (in words) [3] | inhibition at 10 µM [4] | PGE2 synthesis (in words) ([5]; 10 μM, cocktail of cytokines (IL-1β, TNF-α, INF-γ), five days) | Inhibition of PGE2 synthesis (in words) ([5]; Table 4) | inhibition at 10 µM [6] | Inhibition of GAG degradation (in words) ([4]; Table 4, injured cartilage explants, inflammatory conditions)
C[C@H]1[C@H](C)CC[C@]2(C(=O)O[C@@H]3O[C@H](CO[C@@H]4O[C@H](CO)[C@@H](O[C@@H]5O[C@@H](C)[C@H](O)[C@@H](O)[C@H]5O)[C@H](O)[C@H]4O)[C@@H](O)[C@H](O)[C@H]3O)CC[C@]3(C)C(=CC[C@@H]4[C@@]5(C)C[C@@H](O)[C@H](O)[C@@](C)(CO)[C@@H]5[C@H](O)C[C@]43C)[C@H]12 [Madecassoside, reference compound] | No effect | No effect | No effect | – | – | – | – | –
CC(C(=O)O)c1ccc(C(=O)c2ccccc2)s1 (centres unmarked) [Tiaprofenic Acid, reference compound] | No effect | – | – | 70% | – | – | – | –
CNC(=O)[C@H](Cc1ccccc1)NC(=O)[C@H](CC(C)C)[C@H](CSc1cccs1)C(=O)NO [Batimastat, reference compound] | – | – | – | 100% | did not inhibit | No effect | 100% | –
CC1(C)O[C@@H]2[C@@H](CO[C@@]3(COS(N)(=O)=O)OC(C)(C)O[C@@H]23)O1 [Topramax, reference compound] | No effect | No effect | No effect | – | – | – | – | –
CN1C(C(=O)Nc2ccccn2)=C(O)c2ccccc2S1(=O)=O [Proxicam, reference compound] | No effect | – | – | – | – | – | – | No effect
